Source: patent US20240342138A1, “MICROTUBULE TARGETING AGENTS” (BPGbio, Inc., priority 2023, published 2024)

Assays:
[1] = system: Triple Negative Breast Cancer patient-derived organoids CTG-1520, CTG-0896, CTG-1017; test: Viability of PDO models of taxane resistance (CellTiter-Glo, 5 days); assay type: cell-based, human
Procedure: FIGS. 9A and 9B show potency of Compound 1 in patient-derived organoid (PDO) models of taxane resistance. Patient-derived organoids were treated with Compound 1, paclitaxel or controls (0.1% DMSO, positive control—10% DMSO) for 5 days. Viability was assessed using the CellTiter-Glo® assay. IC50 and maximal (max) inhibition values were extrapolated from the viability curves. A) Model overview and dose response curves to Compound 1 and paclitaxel. B) Summary of CellTiter-Glo results in all three models tested. Compiled data of N=4 replicates.
CTG-1520 and CTG-0896 were derived from Triple Negative Breast Cancer (TNBC) patients post-treatment, and progression on a taxane-based therapy and the models' resistance to paclitaxel was confirmed by testing in vivo PDX (Patient-derived xenograft) tumor growth. […] Compound 1 and paclitaxel were tested head-to-head in each model in a dose-curve setting. 10% DMSO was used as the positive control for induction of 100% cell cytotoxicity.

[2] = system: DU145 cells; test: In vitro potency, ATPlite 1Step (NTRC Oncolines); assay type: cell-based; settings: Homo sapiens, DU-145
Procedure: FIG. 12A-12E show the efficacy of Compound lin a prostate cancer xenograft model (DU145). A) In vitro potency of Compound 1 in DU145 cells as evaluated by ATPlite 1Step™ Perkin Elmer (performed by NTRC Oncolines). B) DU145 cells were implanted subcutaneously in nude mice and tumors were allowed to grow to a volume of 210 mm^3 followed by randomization of animals into three (3) groups (vehicle control, 75 mg/kg, 150 mg/kg Compound 1) with 12 animals per group. A Compound 1 solid dispersion was prepared prior to each dosing and administered by oral gavage two times a day (BID). Mean tumor volume of each group over time and the growth of tumor in each individual animal was graphed. For each individual animal of […] group TGI (%) was calculated based on the tumor growth inhibition of individual tumor at each given day of the study compared to the average of the group for that given day of the study. P-values were calculated using two-tailed distribution and two-sample equal variance (homoscedastic) for each group treated with Compound 1 for each given day of the study in reference to vehicle control. NS p>0.05; *p≤0.05; **p≤0.01; ***p p≤0.001; **** p≤0.0001. […] The level of two biomarkers, pHH3 and CCNB1 in each tissue was measured and graphed as the Min-to-Max plot and scatter plot of the level of each biomarker. […]

[3] = system: DU145 tumors; test: Prostate cancer xenograft model; assay type: in vivo, nude mice
Procedure: FIG. 12A-12E show the efficacy of Compound lin a prostate cancer xenograft model (DU145). A) In vitro potency of Compound 1 in DU145 cells as evaluated by ATPlite 1Step™ Perkin Elmer (performed by NTRC Oncolines). B) DU145 cells were implanted subcutaneously in nude mice and tumors were allowed to grow to a volume of 210 mm^3 followed by randomization of animals into three (3) groups (vehicle control, 75 mg/kg, 150 mg/kg Compound 1) with 12 animals per group. A Compound 1 solid dispersion was prepared prior to each dosing and administered by oral gavage two times a day (BID). Mean tumor volume of each group over time and the growth of tumor in each individual animal was graphed. For each individual animal of vehicle group TGI (%) was calculated based on the tumor growth inhibition of individual tumor at each given day of the study compared to the average of the group for that given day of the study. P-values were calculated using two-tailed distribution and two-sample equal variance (homoscedastic) for each group treated with Compound 1 for each given day of the study in reference to vehicle control. NS p>0.05; *p≤0.05; **p≤0.01; ***p p≤0.001; **** p≤0.0001. C) Plasma and tumor tissues from vehicle (n=11), 75 mg/kg (n=12), and 150 mg/kg (n=12) groups were harvested at the end of the study. The concentration of Compound lin the plasma or tumor tissue was plotted as a column plot (Average t SEM) or Scatter Plot with Median. D) Tumor tissues from vehicle (n=12), 75 mg/kg (n=12) and 150 mg/kg (n=12) groups were harvested at the end of the study when each animal was sacrificed. The level of two biomarkers, pHH3 and CCNB1 in each tissue was measured and graphed as the Min-to-Max plot and scatter plot of the level of each biomarker. The line in the scatter plot indicates the group mean. E) Body weight of each individual animal was measured on days 0, 2, 5, 7, 9, 12, 14, 16, 19, 21, 23, and 26 and graphed using Graphpad Prism.
Anti-tumor efficacy of Compound 1 was evaluated against three (3) different preclinical oncology mice models of colorectal cancer, prostate cancer, and lung adenocarcinoma (see Table 5 below). For this purpose, an oral formulation of Compound 1 was used.
DU145 is an epithelial cell carcinoma derived from the metastatic site (brain). DU145 cells were implanted subcutaneously in nude mice and tumors were allowed to grow to an average volume of 106 mm^3 followed by randomization into three (3) groups consisting of vehicle control, 75 mg/kg and 150 mg/kg Compound 1 (12 animals per group). A Compound 1 solid dispersion was administered by oral gavage two times a day (BID). All animals, except one animal from vehicle group, survived throughout the 26 days of the study. Any animal that left the study prior to Day 26 was eliminated from all calculations. The percentage of tumor growth inhibition (TGI %) was calculated for each individual tumor. The mean tumor volume of each group over time and the growth of tumor in each individual animal is plotted below. The percentage of tumor growth inhibition (TGI %) was calculated for each individual animal.

With `COc1ccccc1-c1nc(CNC(=O)c2ccccc2OC(F)F)n[nH]1` [Compound 1, 2-(difluoromethoxy)-N-[[5-(2-methoxyphenyl)-1H-1,2,4-triazol-3-yl]methyl]benzamide] the “Potency in PDO models” value ([1]; CTG-1520, CTG-0896, CTG-1017, FIG. 9) was “potent in all three (3) PDO models tested”, the “Retention of potency in matched PDO models” value ([1]; same patient before (CTG-1017) and after (CTG-1520) taxane-based chemotherapy) was “retained potency” and the IC50 ([2]; DU145) was 77 nM. The Emax ([2]; DU145, in vitro, read-out: Maximum effect (%)) was 91%, the “TGI (%)” value ([3]; 75 mg/kg BID oral, day 26) was 22% and the “Level of the drug in the plasma and tumor tissue” value ([3]; 75 mg/kg to 150 mg/kg, FIG. 12C) was “dose-dependent increase”. For the same compound, the “Maximum TGI (%), end of the study” value ([3]; 150 mg/kg BID oral (b152 prints 150 mg/g), day 26) was 38%, the Body weight ([3]; 26 days, FIG. 12E) was “no body weight loss related to the drug” and the “Level of biomarkers CCNB1 and pHH3” value ([3]; tumor tissue, FIG. 12D) was “increase”.
